These results are taken from ChEMBL document CHEMBL5537117, “Novel 3-hydroxypyridin-4(1H)-One derivatives as ferroptosis inhibitors with iron-chelating and reactive oxygen species scavenging activities and therapeutic effect in cisplatin-induced cytotoxicity” (Eur J Med Chem, 2024).

Data set [1] can be described thus: Antioxidant activity assessed as trolox equivalent of ORAC radical scavenging activity at 4 uM. In kind it is functional.
Data set [2] is described as follows: Log K2 of the compound in 0.1M KCl at pH 2.0 to 10.5 by UV absorption method. In kind it is physicochemical.
Data set [3] in a line: Log K1 of the compound in 0.1M KCl at pH 0.9 to 2.1 by UV absorption method. In kind it is physicochemical.
Data set [4] in a line: Acid dissociation constant, pKa1 of the compound in 0.1M KCl at pH 2.0 to 10.5 by UV absorption method. In kind it is physicochemical.
Data set [5] is described as follows: Antioxidant activity assessed as trolox equivalent of ORAC radical scavenging activity at 8 uM. The class given is functional.
A short description of data set [6]: Antioxidant activity assessed as ABTS radical scavenging activity incubated in dark for 6 mins by absorbance based microplate reader analysis. In kind it is functional.
Data set [7] in a line: Metal chelating activity assessed as Fe3+ chelation.
Data set [8] in a line: Acid dissociation constant, pKa2 of the compound in 0.1M KCl at pH 2.0 to 10.5 by UV absorption method. The class given is physicochemical.
Data set [9] can be described thus: Log K3 of the compound in 0.1M KCl at pH 2.0 to 10.5 by UV absorption method. In kind it is physicochemical.
The nature of data set [10]: Acid dissociation constant, pKa3 of the compound in 0.1M KCl at pH 2.0 to 10.5 by UV absorption method. The class given is physicochemical.
Data set [11] has as its system HT-22. Kind of data set: Cytotoxicity against mouse HT-22 cells assessed as reduction in cell viability at 150 uM by MTT assay relative to control. The class given is toxicity, cell-based. The note with it: ht-22, 150 µM. (Tetrazolium assays rely on reduction of a dye to a coloured formazan, in cell work by metabolically active cells.)
Data set [12] concerns HT-22. Kind of data set: Anti-ferroptotic activity in erastin-induced ferroptosis in mouse HT-22 cells assessed as cell viability incubated for 24 hrs by MTT assay. The class given is functional, cell-based. The note with it: HT-22, 24 h.

SMILES strings stand for the structures.

As usually defined, the pKa is the negative logarithm of the acid dissociation constant. A higher pKa goes with a weaker acid or stronger base. Broadly, the IC50 is the concentration that inhibits the measured activity by half. Regarding `COc1cc(F)ccc1/C=C/C(=O)Nn1ccc(=O)c(O)c1C`, the Activity amounted to 1.21 in data set [1], 3.83 in data set [5] and 17 in [7]. For the same compound, the “log(activity)” value in data set [2] came to 26.09; in data set [3], 14.06; in [9], 35.29. The pKa in [4] came out at 2.34; in data set [8], 7.02; in data set [10] it was 10.4. Further, the IC50 in data set [6] turned out to be 5.01 µM.
With `Cc1c(O)c(=O)ccn1NC(=O)/C=C/c1c(F)cccc1F`, the Activity turned out to be 2.45 in [1], 5.03 in data set [5] and 17.4 in [7]. The “log(activity)” value in data set [2] is given as 26.25; in [3], 14.27; in [9], 35.32. In addition, the pKa in [4] is 2.51; in data set [8], 6.83; in [10] it was 10.2. Further, the 50% inhibitory concentration (IC50) in data set [6] was 4.81 µM.
Take `Cc1ccc(/C=C/C(=O)Nn2ccc(=O)c(O)c2C)cc1`: the Activity is 0.72 in data set [1], 2.89 in data set [5] and 16.8 in [7]. Further, the results for the “log(activity)” value in data set [2], in data set [3] and in [9] were 26.49, 13.93 and 34.5, respectively. Moreover, the pKa was 2.25 in [4], 7.24 in [8] and 10.3 in data set [10]. Further, the IC50 in [6] came to 4.79 µM.
Turning to `Cc1c(O)c(=O)ccn1NC(=O)/C=C/c1ccc(F)cc1Cl`, the Activity was 2.15 in [1], 4.78 in data set [5] and 17.6 in [7]. The entries for the “log(activity)” value in data set [2], in data set [3] and in data set [9] were 26.4, 14.41 and 35.55, respectively. Moreover, the pKa in [4] stood at 2.71; in data set [8] it was 6.7; in data set [10] it was 10.2. Besides, the concentration for half-maximal inhibition (IC50) in [6] turned out to be 5.01 µM.
In the case of `Cc1cccc(C)c1/C=C/C(=O)Nn1ccc(=O)c(O)c1C`, the Activity in data set [1] came out at 2.91; in [5] it was 5.6; in data set [7], 16.9. Besides, the “log(activity)” value in [2] is 25.8; in data set [3], 13.71; in data set [9], 35.08. The pKa in data set [4] was determined as 2.06; in data set [8], 6.97; in [10], 10.3. In [6], the IC50 was determined as 4.88 µM.
For orientation: EC50 means the midpoint of the concentration-response curve. In the case of `COc1ccccc1/C=C/C(=O)Nn1ccc(=O)c(O)c1C`, the Activity was 8.92 in [1], 14.6 in data set [5], more than 80% in the data set with HT-22 [11] and 17.4 in data set [7]. The “log(activity)” value in data set [2] is given as 26.17; in data set [3], 14.14; in [9], 35.48. The pKa in [4] was 2.46; in data set [8], 7.09; in data set [10], 10.3. Also, the IC50 in data set [6] stood at 4.78 µM. In the data set with HT-22 [12], the EC50 turned out to be 18.2 µM.
Take `Cc1c(O)c(=O)ccn1NC(=O)/C=C/c1ccc(F)cc1F`: the Activity in [1] turned out to be 1.17; in [5] it was 2.67; in [7], 17.5. The “log(activity)” value in [2] is 26.11; in data set [3] it was 14.11; in data set [9] it was 35.31. The pKa in data set [4] stood at 2.57; in data set [8] it was 6.83; in data set [10] it was 10.2. In data set [6], the IC50 worked out at 7.51 µM.
For the compound `Cc1ccccc1/C=C/C(=O)Nn1ccc(=O)c(O)c1C`, the Activity in [1] was determined as 0.97; in [5], 3.09; in data set [7], 17.6. For the same compound, the entries for the “log(activity)” value in data set [2], in data set [3] and in data set [9] were 25.95, 13.79 and 35.43, respectively. The pKa came out at 2.23 in data set [4], 6.98 in data set [8] and 10.2 in [10]. In addition, the IC50 in [6] was 4.68 µM.
As to `Cc1c(O)c(=O)ccn1NC(=O)/C=C/c1ccc(Cl)cc1`, the Activity in data set [1] and in [5] was less than 0.1 in each case. In [6], the IC50 is 8.66 µM.
Consider `Cc1c(O)c(=O)ccn1NC(=O)/C=C/c1ccc(C(F)(F)F)cc1`, for which the results for the Activity in data set [1] and in data set [5] were less than 0.1 and 0.61, respectively. Moreover, the IC50 in data set [6] was determined as 12 µM.
For `Cc1c(O)c(=O)ccn1NC(=O)/C=C/c1cc(Cl)ccc1Cl`, the Activity in data set [1] amounted to 3.06; in data set [5], 6.56; in data set [7] it was 17.7. In addition, the “log(activity)” value came to 26.02 in data set [2], 14.19 in [3] and 35.05 in data set [9]. The pKa in [4] was determined as 2.48; in [8], 7.34; in data set [10], 10. Besides, the IC50 in data set [6] was more than 100 µM.
Regarding `Cc1c(O)c(=O)ccn1NC(=O)/C=C/c1cccc(Cl)c1F`, the Activity in data set [1] is less than 0.1; in data set [5], 1.24. The IC50 in data set [6] was determined as 21.8 µM.
With `COc1ccc(/C=C/C(=O)Nn2ccc(=O)c(O)c2C)c(F)c1`, the Activity in data set [1] is less than 0.1; in [5] it was 6.01. Besides, the IC50 in data set [6] is more than 100 µM.
As for `O=C(/C=C/c1ccccc1)c1ccccc1` [CHALCONE], the EC50 with HT-22 [12] is more than 500 µM.
For `COc1ccc(/C=C/C(=O)Nn2ccc(=O)c(O)c2C)cc1OC`, the Activity in data set [1] is 15.7; in data set [5], 21.1; in the data set on HT-22 [11], more than 80%; in data set [7], 17.3. Moreover, the “log(activity)” value in [2] was found to be 25.87; in data set [3], 13.89; in [9] it was 35.17. The pKa was determined as 2.29 in data set [4], 7.33 in data set [8] and 10.2 in data set [10]. In addition, the IC50 in data set [6] stood at 4.9 µM. Besides, the EC50 with HT-22 [12] worked out at 33.5 µM.
`O=C(O)/C=C/c1ccccc1` [CINNAMIC ACID]: the Activity is 1.27 in data set [1] and 1.13 in data set [5]. Also, in data set [6], the IC50 was more than 100 µM.
For `Cc1c(O)c(=O)ccn1NC(=O)/C=C/c1ccc(F)cc1`, the Activity was 22.8 in [1], 34.1 in [5], more than 80% with HT-22 [11] and 17.8 in [7]. The “log(activity)” value in data set [2] came out at 26.34; in data set [3], 14.3; in data set [9] it was 35.77. The pKa in data set [4] amounted to 2.64; in data set [8] it was 7.15; in data set [10] it was 10.2. Further, the IC50 in data set [6] was 4.97 µM. In addition, in the data set on HT-22 [12], the EC50 came out at 17.4 µM.
Turning to `Cc1c(O)c(=O)ccn1NC(=O)/C=C/c1ccccc1`, the Activity in [1] is 6.73; in [5], 11.4; with HT-22 [11], more than 80%; in [7] it was 17.9. The “log(activity)” value stood at 25.88 in data set [2], 13.61 in data set [3] and 35.4 in data set [9]. In addition, the pKa in [4] came to 2.37; in [8] it was 7.1; in data set [10], 10.1. In data set [6], the IC50 was found to be 4.8 µM. The EC50 with HT-22 [12] was found to be 72 µM.
Consider `Cc1cccc(/C=C/C(=O)Nn2ccc(=O)c(O)c2C)c1`, for which the figures for the Activity in data set [1], in data set [5] and in data set [7] were 0.57, 2.51 and 15.8, respectively. The entries for the “log(activity)” value in [2], in [3] and in data set [9] were 25.95, 13.57 and 35.55, respectively. In addition, the values for the pKa in data set [4], in [8] and in [10] were 1.3, 7.23 and 10.4, respectively. Besides, the IC50 in [6] turned out to be 4.91 µM.
Take `Oc1ccc(/C=C/c2cc(O)cc(O)c2)cc1` [RESVERATROL]: the values for the Activity in data set [1] and in [5] were 16.7 and 17.6, respectively. Further, the IC50 in [6] was 5.14 µM.
With `Cc1c(C)c2c(c(C)c1O)CCC(C)(C(=O)O)O2` (centres undefined) [TROLOX], the IC50 in data set [6] turned out to be 15.3 µM.
Consider `Cc1c(O)c(=O)ccn1NC(=O)/C=C/c1ccccc1Cl`, for which the Activity in [1] was found to be 2.67; in [5], 6.46; in data set [7], 17.4. Besides, the “log(activity)” value in data set [2] came out at 26.11; in data set [3], 14.03; in data set [9], 35.29. For the same compound, the pKa worked out at 2.22 in data set [4], 6.96 in data set [8] and 10.2 in data set [10]. Further, in [6], the IC50 is 5.14 µM.
Take `COc1ccc(/C=C/C(=O)Nn2ccc(=O)c(O)c2C)cc1`: the Activity in [1] came to 9.42; in data set [5] it was 19.4; in [7], 17.1. The “log(activity)” value in [2] came out at 26.09; in [3], 14.01; in data set [9], 35.52. For the same compound, the pKa in data set [4] amounted to 2.42; in data set [8], 7.41; in data set [10], 10.3. In addition, the IC50 in data set [6] amounted to 5.17 µM. Besides, in the data set on HT-22 [12], the EC50 was 28.9 µM.
Turning to `Cc1cccc(/C=C/C(=O)Nn2ccc(=O)c(O)c2C)c1C`, the Activity amounted to 7.64 in data set [1], 13.1 in data set [5] and 17.5 in data set [7]. Further, the results for the “log(activity)” value in data set [2], in [3] and in data set [9] were 26.22, 14.07 and 35.67, respectively. The pKa in [4] amounted to 2.38; in data set [8] it was 7.06; in [10] it was 10.3. Also, the IC50 in data set [6] came to 10.2 µM.
